According to patent publication US9567329B2, “High penetration prodrug compositions of 1H-imidazo[4,5-c]quinolin-4-amines and 1H-imidazo[4,5-c]quinolin-4-amine-related compounds and uses thereof” (Techfields Pharma Co., Ltd, priority 2007, dated 2017):

Assays:
[1] = In vitro penetration rate across human skin in modified Franz cells; type: in vitro ADME; conditions: 3% solution in ethanol/pH 7.4 phosphate buffer (0.2 M) 70/30
Protocol: Penetration rates of HPPs and their parent drugs through human skin were measured in vitro by modified Franz cells. A Franz cell had two chambers, the top sample chamber and the bottom receiving chamber. The human skin tissue (360-400 μm thick) that separated the top and the receiving chambers was isolated from the anterior or posterior thigh areas.
A compound tested (0.5 mL, 3% in a mixture of ethanol and phosphate buffer (0.2M, pH 7.4) (v/v, 70/30)) was added to the sample chamber of a Franz cell. The receiving chamber contains 2 ml of 2% bovine serum albumin in saline which was stirred at 600 rpm. The amount of the tested compound penetrating the skin was determined by high-performance liquid chromatography (HPLC) method.
The lowest detectable apparent flux values in this method was 1 μg/cm^2/h.

[2] = Irritative effect or discomfort on skin of nude mice after topical application; type: in vivo; conditions: 0.1 ml of 3% in pH 7.4 phosphate buffer, back of nude mice, twice per day, 1 week
Protocol: Irritative effect or discomfort in the skin of mice of HPPs of 1H-imidazo[4,5-c]quinolin-4-amines or 1H-imidazo[4,5-c]quinolin-4-amine-related compounds was evaluated during a period of 1 week after the topical application of 0.1 ml of 3% of the respective test drug in pH 7.4 phosphate buffer (0.2 M) to the back of nude mice twice per day.

[3] = Conversion of HPPs to parent drugs in human plasma (half life); type: in vitro ADME; conditions: 37° C.
Protocol: HPPs of 1H-imidazo[4,5-c]quinolin-4-amines or 1H-imidazo[4,5-c]quinolin-4-amine-related compounds converted to the parent 1H-imidazo[4,5-c]quinolin-4-amines or 1H-imidazo[4,5-c]quinolin-4-amine-related compounds quickly in good yield in human plasma.
A HPP of 1H-imidazo[4,5-c]quinolin-4-amines or 1H-imidazo[4,5-c]quinolin-4-amine-related compound (0.05 mg) was dissolved in 0.1 ml of 0.2M pH 7.4 phosphate buffer. 1 ml of human plasma, preheated to 37° C., was added into the mixture. The mixture was kept in a water bath at 37° C., and at every 10 min intervals 0.2 ml of samples were withdrawn and added to 0.4 ml of methanol to precipitate the plasma protein. The samples were centrifuged for 5 min and analyzed by HPLC.

[4] = test system: Human breast cancer cells (BCAP-37); experiment: Antitumor activity, breast cancer xenograft, topical treatment from day 1; conditions: 50 μl of 3% topically once per day from day 1; after 28 days
Text: Human breast cancer cells (BCAP-37, 4-5 mm^3 of tumor tissue was used in each mouse) were subcutaneous xenografted into nude mice (BALB).

[5] = test system: Human colon cancer cells (LS174J); experiment: Antitumor activity, colon cancer xenograft, topical treatment from day 1; conditions: 50 μl of 3% topically twice per day from day 1; after 28 days
Text: Human colon cancer cells (LS174J, 4-5 mm^3 of tumor tissue was used in each mouse) were subcutaneously xenografted into nude mice (BALB).

[6] = test system: Human breast cancer cells (BCAP-37)
Text: Human breast cancer cells (BCAP-37, 3-4 mm^3 of tumor tissue was used in each mouse) were subcutaneously xenografted into nude mice (BALB).

interferon production [7] = experiment: Interferon inducing activity in guinea pigs (serum protection of fibroblasts from mengovirus); type: in vivo; conditions: serum 18 hours after treatment
Protocol: Without being bound by any mechanism, the ability to induce interferon production of the pro-drugs of the invention was evaluated in guinea pigs (n=10). Untreated guinea pigs provided controls.
Each test drug was administered to real back skin of a guinea pig at a specific dose of about 0.5-4.5 mg/kg respectively.
Each treated and control guinea pig was bled 18 hours after drug treatment and its serum was assayed for interferon activity. The serum was diluted and incubated with guinea pig fibroblast cells at 37° C. overnight in 96 well microtiter plates. The incubated cells were then challenged with an inoculum of mengovirus that was sufficient to kill untreated cells in two days. Two days after such challenge, the cells were examined both microscopically and after staining with crystal violet to determine whether the cells remained intact.
Table 4 contains the results of the study with activity/ml indicating the highest dilute on of serum that protected cells from virus challenge. Untreated guinea pigs provided controls.

[8] = test system: herpes simplex virus Type II; experiment: Anti-Herpes activity, treated for 3 days before HSV infection; type: in vivo; conditions: guinea pigs
Protocol: (§1) The evaluation of anti-Herpes activity of these prodrugs was carried out using the method described by Kern, et al. [Antimicrob. Agents Chemother. 14, 817, (1978)]. In each experiment, female guinea pigs (n=10) were anesthetized. […] Virus replication was monitored by determining the amount of virus recovered with vaginal swabs taken on day 7 after infection. […] The percent Lesion Inhibition was calculated as follows: 100-[(Sum of maximum lesion scores of treated group divided by the Sum of the scores of infected control)×100] (Table 5).

[9] = test system: herpes simplex virus Type I; experiment: as above; type: in vivo; conditions: guinea pigs
Protocol: as §1

[10] = test system: herpes simplex virus Type II; experiment: Anti-Herpes activity, treated for 5 days, first treatment just after HSV infection; type: in vivo; conditions: guinea pigs
Protocol: (§2) The evaluation of anti-Herpes activity of these prodrugs was carried out using the method described by Kern, et al. [Antimicrob. Agents Chemother. 14, 817, (1978)].
(§3) In the second experiment, female guinea pigs (n=10) were anesthetized. Herpes simplex virus (Type I or Type II, about 10^5 plaque forming units were used) was applied intravaginally to the guinea pigs using a cotton swab. […] Virus replication was monitored by determining the amount of virus recovered with vaginal swabs taken on day 7 after infection. External lesions were scored daily for ten days using the following scale: 0, no lesion; 1, redness and swelling; 2, a few small vesicles; 3, several large vesicles; 4, large ulcers and necrosis; and 5, paralysis. The percent Lesion Inhibition was calculated as follows: 100−[(Sum of maximum lesion scores of treated group divided by the Sum of the scores of infected control)×100] (Table 6).

[11] = test system: herpes simplex virus Type I; experiment: as above; type: in vivo; conditions: guinea pigs
Protocol: as §2, §3

[12] = test system: herpes simplex virus Type II; experiment: Anti-Herpes activity, treated for 5 days, first treatment 5 days after HSV infection; type: in vivo; conditions: guinea pigs
Protocol: as §2
(§4) In the third experiment, female guinea pigs (n=10) were anesthetized. The guinea pigs were then infected with herpes simplex virus (type I or Type II, about 10^5 plaque forming units were used) intravaginally using a cotton swab. […] External lesions were scored daily for ten days using the following scale: 0, no lesion; 1, redness and swelling; 2, a few small vesicles; 3, several large vesicles; 4, large ulcers and necrosis; and 5, paralysis. The percent Lesion Inhibition was calculated as follows: 100−[(Sum of maximum lesion scores of treated group divided by the Sum of the scores of infected control)×100] (Table 7).

[13] = test system: herpes simplex virus Type I; experiment: as above; type: in vivo; conditions: guinea pigs
Protocol: as §2, §4

interferon production [14] = experiment: Interferon inducing activity in guinea pigs (serum protection of fibroblasts from mengovirus); type: in vivo; conditions: serum 18 hours after treatment; remark: listed apart in the source
[15] = at day 42, treatment from day 21 (tumors 13±2 mm×12±3 mm), 50 μl of 3% topically once per day
[16] = 0.5 mg/kg once per day for 3 days before HSV infection
[17] = 1.5 mg/kg once per day for 3 days before HSV infection
[18] = 4.5 mg/kg once per day for 3 days before HSV infection
[19] = 0.5 mg/kg once per day for 5 days
[20] = 1.5 mg/kg once per day for 5 days
[21] = 4.5 mg/kg once per day for 5 days

CNCC(=O)Nc1nc2ccccc2c2c1ncn2CC(C)C.Cl [sarcosine 1-isobutyl-1H-imidazo[4,5-c]quinolin-4-amide hydrochloride]
In vitro Penetration Rate of HPPs (apparent flux) [1]: 0.15 mg/cm^2/h
signs of irritative effect or discomfort in the skin [2]: None of any signs of irritative effect or discomfort was observed
Half life of HPPs in plasma [3]: 27 ± 1 min
Tumor size, Human breast cancer, first dimension [4]: None
tumor incidence, human breast cancer [4]: no tumor was seen
Tumor size, Human colon cancer, first dimension [5]: None
tumor incidence, human colon cancer [5]: no tumor was seen
tumor size, first dimension [6, 15]: 11±2 mm
tumor size, second dimension [6, 15]: 10±2 mm
death of mice ([6]; up to day 70, 50 μl of 3% topically once per day from day 21): none of mice died at day 70
Interferon level of the HPP, transdermal (interferon production [7]; 0.5 mg/kg once): 8,676 activity/ml
Interferon level of the HPP, transdermal (interferon production [7]; 1.5 mg/kg once): 16,784 activity/ml
Interferon level of the HPP, transdermal (interferon production [7]; 4.5 mg/kg once): 57,235 activity/ml
% Lesion inhibition of the HPP, intravaginal, Herpes type II [8, 16]: 75%
% Lesion inhibition of the HPP, transdermal, Herpes type II [8, 16]: 51%
% Lesion inhibition of the HPP, intravaginal, Herpes type II [8, 17]: 90%
% Lesion inhibition of the HPP, transdermal, Herpes type II [8, 17]: 73%
% Lesion inhibition of the HPP, intravaginal, Herpes type II [8, 18]: 96%
% Lesion inhibition of the HPP, transdermal, Herpes type II [8, 18]: 90%
% Lesion inhibition of the HPP, intravaginal, Herpes type I [9, 16]: 71%
% Lesion inhibition of the HPP, transdermal, Herpes type I [9, 16]: 45%
% Lesion inhibition of the HPP, intravaginal, Herpes type I [9, 17]: 93%
% Lesion inhibition of the HPP, transdermal, Herpes type I [9, 17]: 72%
% Lesion inhibition of the HPP, intravaginal, Herpes type I [9, 18]: 95%
% Lesion inhibition of the HPP, transdermal, Herpes type I [9, 18]: 91%
% Lesion inhibition of the HPP, intravaginal, Herpes type II [10, 19]: 56%
% Lesion inhibition of the HPP, transdermal, Herpes type II [10, 19]: 49%
% Lesion inhibition of the HPP, intravaginal, Herpes type II [10, 20]: 90%
% Lesion inhibition of the HPP, transdermal, Herpes type II [10, 20]: 80%
% Lesion inhibition of the HPP, intravaginal, Herpes type II [10, 21]: 96%
% Lesion inhibition of the HPP, transdermal, Herpes type II [10, 21]: 93%
% Lesion inhibition of the HPP, intravaginal, Herpes type I [11, 19]: 57%
% Lesion inhibition of the HPP, transdermal, Herpes type I [11, 19]: 47%
% Lesion inhibition of the HPP, intravaginal, Herpes type I [11, 20]: 87%
% Lesion inhibition of the HPP, transdermal, Herpes type I [11, 20]: 77%
% Lesion inhibition of the HPP, intravaginal, Herpes type I [11, 21]: 95%
% Lesion inhibition of the HPP, transdermal, Herpes type I [11, 21]: 91%
% Lesion inhibition of the HPP, intravaginal, Herpes type II [12, 19]: 38%
% Lesion inhibition of the HPP, transdermal, Herpes type II [12, 19]: 38%
% Lesion inhibition of the HPP, intravaginal, Herpes type II [12, 20]: 70%
% Lesion inhibition of the HPP, transdermal, Herpes type II [12, 20]: 58%
% Lesion inhibition of the HPP, intravaginal, Herpes type II [12, 21]: 90%
% Lesion inhibition of the HPP, transdermal, Herpes type II [12, 21]: 88%
% Lesion inhibition of the HPP, intravaginal, Herpes type I [13, 19]: 37%
% Lesion inhibition of the HPP, transdermal, Herpes type I [13, 19]: 37%
% Lesion inhibition of the HPP, intravaginal, Herpes type I [13, 20]: 68%
% Lesion inhibition of the HPP, transdermal, Herpes type I [13, 20]: 57%
% Lesion inhibition of the HPP, intravaginal, Herpes type I [13, 21]: 88%
% Lesion inhibition of the HPP, transdermal, Herpes type I [13, 21]: 89%
Interferon level of the HPP, intravaginal (interferon production [14]; 0.5 mg/kg once): 23,647 activity/ml
Interferon level of the HPP, intravaginal (interferon production [14]; 1.5 mg/kg once): 56,735 activity/ml
Interferon level of the HPP, intravaginal (interferon production [14]; 4.5 mg/kg once): 87,795 activity/ml
